In US12344899B2, “Compositions and methods for therapeutics prescreening” (TECHNION RESEARCH & DEVELOPMENT FOUNDATION LIMITED, priority 2014, dated 2025):
“Also recorded” adds a separate entry of the source.

How the values were obtained:
[1] = tested on: 4T1 breast cancer primary tumor; assay: Barcoded nanoparticles with different drugs injected simultaneously i.v.; barcode levels in live/dead tumor cells (FIG. 8); assay type: in vivo, BALB/c mice; conditions: for therapeutic effect rated from barcode distribution / drug barcode levels in the dead cells in comparison to the live cells: tumor biopsy 48 hours later; for therapeutic effect rated from barcode distribution: FIGS. 8A-E; for drug barcode levels in the dead cells in comparison to the live cells: cells sorted live/dead
Description: Barcoded nanoparticles containing control compounds or different drugs: placebo (A), caffeine (B), Cisplatin (C), Doxorubicin (D) and Gemcitabine (E), were injected simultaneously intravenously to BALB/c mice bearing a primary tumor in the hind thigh. 48 hours later, enabling the particle to accumulate in the tumor and perform the therapeutic activity, a biopsy was taken from the tumor. The biopsy tissue was then dissociated into a single-cell suspension, and the cells were screened according to their viability (live/dead). […] (F) The potency of the drugs was calculated by dividing the number of barcodes extracted from dead cells by the number of barcodes extracted from live cells for each drug. The values are presented in logarithmic scale.
In vivo transfection: 100 μl of 10^6cells/ml of 4T1 (breast cancer) was injected subcutaneous to 10 weeks balb/c female mice. About […] later (when the primary tumor was massive enough), 100 μl of liposome solution was injected intravenous. 36 hrs later, the mouse was sacrificed and its organs (+tumor) were taken in ice for further steps.
In the present study, ovarian tumors are expanded in hESC teratomas in SCID/beige mice, as previously described (Burgos-Ojeda, ibid.). Barcoded nanoparticles loaded with anti-cancer drugs are administered intravenously. Evaluation of the therapeutic task of the nanoparticle is evaluated after 48 hours which enables accumulation in the tumor and carrying out a therapeutic task. […] Post-mortem histological evaluation of the tissue is used to study the tumor bio-distribution. A biopsy sample is then dissociated into a single-cell suspension and the cells are sorted, using antibodies, according to cell subpopulation (including, CD45, CD11B, F4/80, CD13, REST) and viability (live/dead).
Barcoded nanoparticles containing five different drugs or control compounds (FIG. 8 depicts Placebo, Caffeine, Cisplatin, Doxorubicin and Gemcitabine), were injected simultaneously intravenously to BALB/c mice bearing a primary tumor in the hind thigh. 48 hours later, a biopsy was taken from the tumor. The biopsy tissue was then dissociated into a single-cell suspension, and the cells were screened according to their viability (live/dead).

4T1 breast cancer tumor = assay: Therapeutic treatment validating the barcoding analysis (FIG. 9); assay type: in vivo, mice; conditions: for proliferation index (anti-Ki67 immunohistochemistry): tumors extracted 24 days after starting treatment, 125 mg/kg Gemcitabine i.v. weekly
Description: FIG. 9A-D. Therapeutic efficacy based on barcoding analysis. FIGS. 9A-B and D are bar graphs comparing tumor volume change between different therapeutic groups. Each group got a weekly dose of chemo drug Doxorubicin, Cisplatin, or Gemcitabine. The control group got saline. Representative tumor dimensions of each group. The tumor was extracted […] after starting the treatment. Tumor/Body weight of each group.
To validate the barcoding analysis of the three chemotherapeutic drugs—Doxorubicin, Cisplatin and Gemcitabine, therapeutic treatment was conducted. The experiment included 4 groups, each containing 6 mice. Each group was treated with single drug for 24 days, starting 10 days post tumor induction. Each dose was given intravenous once a week. Each group was treated with either 5 mg/kg of Doxorubicin, 6 mg/kg of Cisplatin, 125 mg/kg of Gemcitabine or 100 μl of saline as a control. Tumors volumes were measured with caliper and calculated as length/2*(width)^2. […] 24 days after starting the treatment, the tumor of each mouse was extracted for further analysis. […] The tumor weight parameter reflects the effectiveness of the drug to inhibit and damage the tumor growth. The body weight parameter reflects the influence of the drug on the body or how severe are the side effects of the drug. […] To check differences in the tissue level between the different groups, all the tumors were studied histologically. Tissue slides from the tumors were stained with hematoxylin and eosin. […] Additionally, tissue slides were immunohistochemically stained with rabbit monoclonal anti-Ki67 antibody (SP6; Thermo Scientific, Fremont, Calif.) to determine proliferation index (not shown).

[2] = 5 mg/kg Doxorubicin, 6 mg/kg Cisplatin

Structure (SMILES) | therapeutic effect rated from barcode distribution ([1]; drug in barcoded nanoparticles) | proliferation index (anti-Ki67 immunohistochemistry) (4T1 breast cancer tumor; [2]) | barcodes accumulated in the dead cells, more compare to the live cells ([1]; drug in barcoded nanoparticles, 48 hours, FIG. 8(E)) | drug barcode levels in the dead cells in comparison to the live cells [1] | tumor/body weight ratio (4T1 breast cancer tumor; at sacrifice, FIG. 9(C), weekly i.v. dosing) | tumor volume change / tumor growth (4T1 breast cancer tumor; i.v. once a week for 24 days, 5 mg/kg Doxorubicin, 6 mg/kg Cisplatin, 125 mg/kg Gemcitabine, FIG. 9(A))
COc1cccc2c1C(=O)c1c(O)c3c(c(O)c1C2=O)C[C@@](O)(C(=O)CO)C[C@@H]3O[C@H]1C[C@H](N)[C@H](O)[C@H](C)O1 [Doxorubicin] | clear therapeutic effect | 90% | – | – | – | –
Nc1ccn([C@@H]2O[C@H](CO)[C@@H](O)C2(F)F)c(=O)n1 [Gemcitabine] | more effective than cisplatin; also recorded: most efficient drug | 40% | 6,000 | Elevated levels | minimum tumor/body weight ratio | significantly attenuated the growth of the tumors
N.N.[Cl][Pt][Cl] [Cisplatin] | clear therapeutic effect | 65% | – | Elevated levels | – | –
Cn1c(=O)c2c(ncn2C)n(C)c1=O [Caffeine] | almost no effect | – | – | – | – | –
